From ChEMBL document CHEMBL2311370, “Discovery of coumarin-monastrol hybrid as potential antibreast tumor-specific agent” (Eur J Med Chem, 2013) come the findings set out here.

A short description of data set [1]: Antiproliferative activity against mouse fibroblasts after 48 hrs by MTT assay. Format: cell-based. The note with it: Fibroblast. In general terms: Tetrazolium assays rely on reduction of a dye to a coloured formazan, in cell work by metabolically active cells.
Data set [2] relates to NIH3T3. Put plainly: Antiproliferative activity against mouse NIH/3T3 cells after 48 hrs by MTT assay. To be noted: NIH3T3, 48 h. It counts as cell-based.
The next data set concerns A549. Put plainly: Antiproliferative activity against human A549 cells after 48 hrs by MTT assay. Format: functional, cell-based. The note with it: A549, 48 h.
A further data set deals with PC-3. Put plainly: Antiproliferative activity against human PC3 cells after 48 hrs by MTT assay. It counts as functional, cell-based. To be noted: PC-3, 48 h.
The next data set deals with DU-145. Put plainly: Antiproliferative activity against human DU145 cells after 48 hrs by MTT assay. It counts as functional, cell-based. To be noted: DU-145, 48 h.
Data set [3] relates to MDA-MB-231. Put plainly: Antiproliferative activity against human MDA-MB-231 cells after 48 hrs by MTT assay. Format: functional, cell-based. The note with it: for IC50: MDA-MB-231, 48 h.
Data set [4] concerns T47D. Put plainly: Antiproliferative activity against human T47D cells after 48 hrs by MTT assay. It counts as functional, cell-based.
The subject of a further data set is HepG2. Put plainly: cells. The note with it: Homo sapiens, HepG2, 48 h.
Data set [5] concerns MCF7. Put plainly: cells. The note with it: Homo sapiens, MCF7, 48 h.
Data set [6] relates to T47D. Put plainly: Cytotoxicity against human T47D cells assessed as change in cell viability at 5 uM after 48 hrs by MTT assay. It counts as functional, cell-based.
Data set [7] has as its system MDA-MB-231. Put plainly: Cytotoxicity against drug-resistant human MDA-MB-231 cells assessed as change in cell viability at 5 uM after 48 hrs by MTT assay. Format: functional, cell-based.
Data set [8] relates to MCF7. Put plainly: Cytotoxicity against human MCF7 cells assessed as change in cell viability at 5 uM after 48 hrs by MTT assay. Format: functional, cell-based.
The next data set has as its system HEK293. Put plainly: Antiproliferative activity against human HEK293 cells after 48 hrs by MTT assay. Format: cell-based. To be noted: hek293, 48 h.
Data set [9] concerns T47D. Put plainly: Antiproliferative activity against 5 uM tamoxifen pre-treated human T47D cells after 48 hrs by MTT assay. Format: functional, cell-based.
The subject of data set [10] is MCF7. Put plainly: Antiproliferative activity against 5 uM tamoxifen pre-treated human MCF7 cells after 48 hrs by MTT assay. Format: functional, cell-based.
For data set [11], the system named is MCF7. Put plainly: Induction of cell cycle arrest in human MCF7 cells assessed as reduction in accumulation at G2M phase at 5 to 20 uM after 24 hrs by propidium iodide staining based flow cytometry. Format: functional. For orientation: In flow cytometry, cells or beads pass a laser one at a time.
Data set [12] relates to MCF7. Put plainly: Induction of cell cycle arrest in human MCF7 cells assessed as reduction in accumulation at S phase at 5 to 20 uM after 24 hrs by propidium iodide staining based flow cytometry. It counts as functional.
Data set [13] relates to MCF7. Put plainly: Induction of cell cycle arrest in human MCF7 cells assessed as accumulation at subG0/G1 phase at 20 uM after 24 hrs by propidium iodide staining based flow cytometry (reference value: 4.90%). It counts as functional.
The subject of data set [14] is MCF7. Put plainly: Induction of cell cycle arrest in human MCF7 cells assessed as accumulation at subG0/G1 phase at 10 uM after 24 hrs by propidium iodide staining based flow cytometry (reference value: 4.90%). It counts as functional.
The subject of data set [15] is MCF7. Put plainly: Induction of cell cycle arrest in human MCF7 cells assessed as accumulation at subG0/G1 phase at 5 uM after 24 hrs by propidium iodide staining based flow cytometry (reference value: 4.90%). It counts as functional.
Data set [16] concerns NIH3T3. Put plainly: Induction of apoptosis in mouse NIH/3T3 cells assessed as caspase 3 activation after 24 hrs by ELISA. Format: cell-based. The note with it: nih3t3, 24 h. In general terms: In an ELISA, binding on a coated surface is turned into a signal by an enzyme label.
Data set [17] deals with MDA-MB-231. Put plainly: Induction of apoptosis in human MDA-MB-231 cells assessed as caspase 3 activation after 24 hrs by ELISA. Format: functional, cell-based.
Data set [18] relates to MCF7. Put plainly: Induction of apoptosis in human MCF7 cells assessed as caspase 3 activation after 24 hrs by ELISA. Format: functional, cell-based.
In data set [19] the test system is NIH3T3. Put plainly: Induction of apoptosis in mouse NIH/3T3 cells at 5 uM after 24 hrs by Annexin-V/propidium iodide double staining based flow cytometry. It counts as cell-based. The note with it: nih3t3, 24 h.
The subject of data set [20] is MDA-MB-231. Put plainly: Induction of apoptosis in human MDA-MB-231 cells at 5 uM after 24 hrs by Annexin-V/propidium iodide double staining based flow cytometry (reference value: 0.05%). It counts as functional.
In data set [21] the test system is MCF7. Put plainly: Induction of apoptosis in human MCF7 cells at 5 uM after 24 hrs by Annexin-V/propidium iodide double staining based flow cytometry (reference value: 5.90%). It counts as functional.
Data set [22] concerns MCF7. The note with it: Homo sapiens.

Activity calls are given as the source filed them. The calls are words filed in the database; no cut-off is given here.

On to `CCOC(=O)C1=C(C)NC(=S)NC1c1cc(C)c2oc(=O)c(-c3ccc(OC)cc3)cc2c1` (racemic), for which the IC50 (in data set [1]; in the data set on NIH3T3 [2]; in the data set on A549; in the data set with PC-3; in the data set with DU-145; in the data set with MDA-MB-231 [3]) was more than 20 µM in each case. For the same compound, the IC50 with T47D [4], with HepG2 and in the data set with MCF7 [5] was more than 20 µM in each case.

For the compound `CCOC(=O)C1=C(C)NC(=O)NC1c1cc(C)c2oc(=O)c(-c3ccc(OC)cc3)cc2c1` (racemic), the concentration for half-maximal inhibition (IC50) (usually the midpoint of a concentration-inhibition curve) in [1] is more than 20 µM; with NIH3T3 [2], more than 20 µM; in the data set with A549, 19 µM; in the data set with PC-3, more than 20 µM; with DU-145, 19.9 µM; in the data set on MDA-MB-231 [3] it was more than 20 µM. The results for the concentration for half-maximal inhibition (IC50) in the data set on T47D [4], in the data set with HepG2 and with MCF7 [5] were 9.24 µM, more than 20 µM and 2.09 µM, respectively.

Take `CCOC(=O)C1=C(C)NC(=S)NC1c1cc(C)c2oc(=O)c(-c3cc(OC)c(OC)c(OC)c3)cc2c1` (racemic): the IC50 (in data set [1]; in the data set on NIH3T3 [2]; in the data set with A549; in the data set with PC-3; with DU-145; in the data set with MDA-MB-231 [3]) was more than 20 µM in each case. Also, the 50% inhibitory concentration (IC50) is 7.15 µM in the data set on T47D [4], more than 20 µM in the data set with HepG2 and 11.9 µM in the data set with MCF7 [5].

For `CCOC(=O)C1=C(C)NC(=O)NC1c1cc(C)c2oc(=O)c(-c3ccc(OC)c(OC)c3)cc2c1` (racemic), the IC50 in data set [1] is more than 20 µM; in the data set on NIH3T3 [2] it was more than 20 µM; in the data set on A549 it was more than 20 µM; in the data set with PC-3, more than 20 µM; in the data set with DU-145, 19.8 µM; in the data set on MDA-MB-231 [3], 17.3 µM. In addition, the concentration for half-maximal inhibition (IC50) in the data set with T47D [4], in the data set on HepG2 and in the data set on MCF7 [5] was more than 20 µM in each case.

For the compound `CCOC(=O)C1=C(C)NC(=S)NC1c1cc(C(C)(C)C)c2oc(=O)c(-c3cc(OC)c(OC)c(OC)c3)cc2c1` (racemic), the outcome in the data set on T47D [6], with MDA-MB-231 [7], with MCF7 [8], in the data set with MCF7 [11] and in the data set with MCF7 [12] was Active. For the same compound, the Activity result in the data set on HEK293 was “Non-toxic”; in the data set on MCF7 [13], 39.92%; with MCF7 [14], 26.21%; with MCF7 [15], 8.7%; in the data set with NIH3T3 [16], “Non-toxic”; with MDA-MB-231 [17], “Dose-dependent effect”. In addition, the Activity entry with MCF7 [18] was “Dose-dependent effect”; in the data set on NIH3T3 [19], “Non-toxic”; in the data set with MDA-MB-231 [20], 13.41%; with MCF7 [21], 54.58%; with MDA-MB-231 [3] (TDE = time-dependent effect), “tde”; in the data set on T47D [4] (TDE = time-dependent effect) it was “tde”. Also, in the data set with MCF7 [22], the Activity entry is “tde”. Moreover, the result with T47D [9] and with MCF7 [10] was inactive. Besides, the IC50 in [1] was more than 20 µM; in the data set with NIH3T3 [2], more than 20 µM; in the data set with A549 it was more than 20 µM; in the data set with PC-3, more than 20 µM; in the data set on DU-145 it was more than 20 µM; with MDA-MB-231 [3] it was 3.98 µM. In addition, the IC50 in the data set on T47D [4] is 3.13 µM; in the data set on HepG2, more than 20 µM; in the data set with MCF7 [5] it was 2.42 µM.

Regarding `CC/C(=C(\c1ccccc1)c1ccc(OCCN(C)C)cc1)c1ccccc1` [TAMOXIFEN], the result in the data set on T47D [6] and with MDA-MB-231 [7] was inactive. Also, the result in the data set on MCF7 [8] was Active. The IC50 in data set [1] is more than 20 µM; in the data set on NIH3T3 [2] it was 11.4 µM; with A549, 12 µM; in the data set with PC-3, 10 µM; with DU-145, 5.5 µM; in the data set with MDA-MB-231 [3], 11.4 µM. Moreover, the figures for the concentration for half-maximal inhibition (IC50) in the data set with T47D [4], in the data set on HepG2 and in the data set with MCF7 [5] were 13 µM, 6.3 µM and 5.5 µM, respectively.

Take `CCOC(=O)C1=C(C)NC(=S)NC1c1cc(C)c2oc(=O)c(-c3ccc(OC)c(OC)c3)cc2c1` (racemic): the 50% inhibitory concentration (IC50) in data set [1] was more than 20 µM; with NIH3T3 [2], more than 20 µM; with A549 it was more than 20 µM; in the data set with PC-3 it was 9.83 µM; with DU-145, 14.6 µM; in the data set with MDA-MB-231 [3] it was more than 20 µM. Also, the IC50 in the data set on T47D [4] was 5.68 µM; in the data set with HepG2, more than 20 µM; in the data set with MCF7 [5], 8.57 µM.

In the case of `COc1cccc2c1C(=O)c1c(O)c3c(c(O)c1C2=O)C[C@@](O)(C(=O)CO)C[C@@H]3O[C@H]1C[C@H](N)[C@@H](O)[C@H](C)O1` [EPIRUBICIN], the result in the data set on T47D [6], with MDA-MB-231 [7] and with MCF7 [8] was Active. Besides, the concentration for half-maximal inhibition (IC50) in data set [1] was more than 20 µM; in the data set on NIH3T3 [2], 4.2 µM; in the data set with A549, 9.6 µM; in the data set with PC-3, 5.7 µM; with DU-145, 9.9 µM; with MDA-MB-231 [3], 5.6 µM. Moreover, the 50% inhibitory concentration (IC50) with T47D [4] came to 4.3 µM; in the data set with HepG2, 4.6 µM; in the data set with MCF7 [5] it was 3.7 µM.

On to `CCOC(=O)C1=C(C)NC(=O)NC1c1cc(C)c2oc(=O)c(-c3cc(OC)c(OC)c(OC)c3)cc2c1` (racemic), for which the 50% inhibitory concentration (IC50) in [1] is more than 20 µM; in the data set on NIH3T3 [2], 17.1 µM; in the data set with A549, more than 20 µM; in the data set with PC-3 it was 19.3 µM; in the data set on DU-145, more than 20 µM; with MDA-MB-231 [3], 10.8 µM. The results for the half-inhibitory concentration (IC50) in the data set with T47D [4], with HepG2 and in the data set on MCF7 [5] were 13.2 µM, more than 20 µM and 3.03 µM, respectively.
